Data from patent US5661175A, “Hemiasterlin and geodiamolide TA” (priority 1995, dated 1997).
In brackets after ≈: the same amount, converted by molar mass.

Key:
P-388 = test: Antitumor cell screening, P-388 growth inhibition; format: cell-based, DBA/2 mouse; conditions: Mus musculus, 72 h; P388; three days incubation at 37° C.; approximate IC50
Description: (§1) Cells were maintained in logarithmic phase of growth in Eagle's Minimum Essential Medium, with Earle's Balanced Salts, with 2.0 mM L-Glutamine, with non-essential Amino Acids, without Sodium Bicarbonate (EMEM/NEAA); supplemented with 10% Fetal Calf Serum (FCS), 10^-2M Sodium Bicarbonate and 0.1 g/l Penicillin-G+Streptomycin Sulfate.
(§2) A simple screening procedure has been carried out to determine and compare the antitumor activity of these compounds, using an adapted form of the method described by Bergeron et al. (1984). The antitumor cell employed have been P-388 (suspension culture of a lymphoid neoplasm from DBA/2 mouse), A-549 (monolayer culture of a human lung carcinoma), HT-29 (monolayer culture of a human colon carcinoma) and MEL-28 (monolayer culture of a human melanoma).
(§3) P-388 cells were seeded into 16 mm wells at 1×10^4 cells per well in 1 ml aliquots of MEM 5FCS containing the indicated concentration of drug. A separate set of cultures without drug was seeded as control growth to ensure that cells remained in exponential phase of growth. All determinations were carried out in duplicate. After three days of incubation at 37° C., 10% CO2 in a 98% humid atmosphere, an approximately IC50 was determined by comparing the growth in wells with drug to the growth in wells control.

MEL-28 = test: Antitumor cell screening, MEL-28 growth inhibition (Crystal Violet); format: cell-based; conditions: Homo sapiens, SK-MEL-28, 72 h; MEL28; three days incubation at 37° C.; approximate IC50
Description: as §1, §2
as §3, with “A-549, HT-29 and MEL-28” for “P-388 cells”, “2×10^4” for “1×10^4”, “10FCS” for “5FCS”, “the wells were stained with 0.1% Crystal Violet. An” for “an”

HT-29 = test: Antitumor cell screening, HT-29 growth inhibition (Crystal Violet); format: cell-based; conditions: Homo sapiens, HT-29, 72 h; HT29; three days incubation at 37° C.; approximate IC50
Description: as §1, §2
as §3, with “A-549, HT-29 and MEL-28” for “P-388 cells”, “2×10^4” for “1×10^4”, “10FCS” for “5FCS”, “the wells were stained with 0.1% Crystal Violet. An” for “an”

A-549 = test: Antitumor cell screening, A-549 growth inhibition (Crystal Violet); format: cell-based; conditions: Homo sapiens, 72 h; A549; three days incubation at 37° C.; approximate IC50
Description: as §1, §2
as §3, with “A-549, HT-29 and MEL-28” for “P-388 cells”, “2×10^4” for “1×10^4”, “10FCS” for “5FCS”, “the wells were stained with 0.1% Crystal Violet. An” for “an”

`C/C1=C\C(C)CC(C)OC(=O)C(C(C)C)NC(=O)C(Cc2ccc(O)c(I)c2)N(C)C(=O)C(C)NC(=O)C(C)C1` (stereo not shown) [Compound 3, geodiamolide TA] gave an IC50 (P-388) of 0.01 µg/mL (≈ 0.0149 µM), an IC50 (MEL-28) of 0.01 µg/mL (≈ 0.0149 µM) and an IC50 (HT-29) of 0.005 µg/mL (≈ 0.00747 µM). For the same compound, the IC50 (A-549) was 0.01 µg/mL (≈ 0.0149 µM).
